{"source": "patent US10004702B2", "about": "“Linear guanidine derivatives, methods of preparation and uses thereof” (LEAD DISCOVERY SIENA S.R.L., priority 2014, dated 2018)", "key": {"[1]": {"test_system": "Achromobacter xylosoxidans AX 22", "test": "Antimicrobial susceptibility testing, MIC by microdilution broth method", "type": "cell-based", "conditions": "AX22, Mueller-Hinton broth, 18-24 hours at 35-37° C., read-out: MIC", "description": "(§1) Bacterial strains were obtained from the ATCC or CCUG culture collections or present in the authors' collection of clinical isolates. Compounds were re-suspended in dimethyl sulfoxyde (DMSO) at a final concentration of 10 mg/ml and subsequently diluted in the culture medium. The minimum inhibitory concentrations (MICs) of the compounds of the invention were determined using the microdilution broth method using Mueller-Hinton broth as recommended by the Clinical Laboratory Standards Institute (CLSI [11]). Bacterial inoculum was 5×10^4 CFU/well. MICs were recorded after 18-24 hours incubation at 35-37° C."}, "[2]": {"test_system": "Acinetobacter baumannii ATCC 17978", "test": "Antimicrobial susceptibility testing, MIC by microdilution broth method", "type": "cell-based", "conditions": "ATCC17978, Mueller-Hinton broth, 18-24 hours at 35-37° C., read-out: MIC", "description": "as §1"}, "[3]": {"test_system": "Alcaligenes faecalis 424/98", "test": "Antimicrobial susceptibility testing, MIC by microdilution broth method", "type": "cell-based", "conditions": "Mueller-Hinton broth, 18-24 hours at 35-37° C., read-out: MIC", "description": "as §1"}, "[4]": {"test_system": "Bacillus subtilis ATCC 6633", "test": "Antimicrobial susceptibility testing, MIC by microdilution broth method", "type": "cell-based", "conditions": "ATCC6633, Mueller-Hinton broth, 18-24 hours at 35-37° C., read-out: MIC", "description": "as §1"}, "[5]": {"test_system": "Enterococcus faecalis ATCC 19433", "test": "Antimicrobial susceptibility testing, MIC by microdilution broth method", "type": "cell-based", "conditions": "ATCC19433, Mueller-Hinton broth, 18-24 hours at 35-37° C., read-out: MIC", "description": "as §1"}, "[6]": {"test_system": "Escherichia coli CCUG^T", "test": "Antimicrobial susceptibility testing, MIC by microdilution broth method", "type": "cell-based", "conditions": "Mueller-Hinton broth, 18-24 hours at 35-37° C., read-out: MIC", "description": "as §1"}, "[7]": {"test_system": "Klebsiella pneumoniae ATCC 13833", "test": "Antimicrobial susceptibility testing, MIC by microdilution broth method", "type": "cell-based", "conditions": "ATCC13833, Mueller-Hinton broth, 18-24 hours at 35-37° C., read-out: MIC", "description": "as §1"}, "[8]": {"test_system": "Pseudomonas aeruginosa ATCC 27853", "test": "Antimicrobial susceptibility testing, MIC by microdilution broth method", "type": "cell-based", "conditions": "ATCC27853, Mueller-Hinton broth, 18-24 hours at 35-37° C., read-out: MIC", "description": "as §1"}, "[9]": {"test_system": "Staphylococcus aureus ATCC 25923", "test": "Antimicrobial susceptibility testing, MIC by microdilution broth method", "type": "cell-based", "conditions": "ATCC25923, Mueller-Hinton broth, 18-24 hours at 35-37° C., read-out: MIC", "description": "as §1"}, "[10]": {"test_system": "Stenotrophomonas maltophilia 634/08", "test": "Antimicrobial susceptibility testing, MIC by microdilution broth method", "type": "cell-based", "conditions": "Mueller-Hinton broth, 18-24 hours at 35-37° C., read-out: MIC", "description": "as §1"}, "[11]": {"test_system": "Acinetobacter baumannii AC-54/97 (IMP-2)", "test": "Antimicrobial susceptibility testing, MIC by microdilution broth method", "type": "cell-based", "conditions": "Acinetobacter baumannii, read-out: MIC", "description": "as §1\n(§2) The Antibacterial activity of compound 28 was also tested on a panel of Gram-negative and Gram-positive clinical isolates, showing various antimicrobial susceptibility profiles (Table 4). The class of drugs for which the isolate was resistant to is indicated in column 2 (PEN, penicillins; ES-CEPH, expanded-spectrum cephalosporins; CARB, carbapenems; AZT; aztreonam; AG, aminoglycosides; FQ, fluoroquinolones; SXT, trimethoprim/sulfamethoxazole; FOS, fosfomycin; GLY, glycopeptides; LNZ, linezolid; COL-R, colistin resistant; COL-S colistin sensitive; PDR, poly-drug resistant)."}, "[12]": {"test_system": "Enterobacter cloacae VA-417/02 (VIM-4)", "test": "Antimicrobial susceptibility testing, MIC by microdilution broth method", "type": "cell-based", "conditions": "Enterobacter cloacae, read-out: MIC", "description": "as §1, §2"}, "[13]": {"test_system": "Klebsiella pneumoniae 167R", "test": "MIC against resistant clinical isolates", "type": "cell-based", "conditions": "resistance profile PDR", "description": "as §1, §2"}, "[14]": {"test_system": "Klebsiella pneumoniae 207-1", "test": "MIC against resistant clinical isolates", "type": "cell-based", "conditions": "2071, COL-S", "description": "as §1, §2"}, "[15]": {"test_system": "Klebsiella pneumoniae 207-2", "test": "MIC against resistant clinical isolates", "type": "cell-based", "conditions": "2072, COL-R", "description": "as §1, §2"}, "[16]": {"test_system": "Klebsiella pneumoniae 7023", "test": "MIC against resistant clinical isolates", "type": "cell-based", "conditions": "resistance profile PEN, ES-CEPH, CARB, AG, FQ, SXT", "description": "as §1, §2"}, "[17]": {"test_system": "Klebsiella pneumoniae B1", "test": "MIC against resistant clinical isolates", "type": "cell-based", "conditions": "COL-S", "description": "as §1, §2"}, "[18]": {"test_system": "Klebsiella pneumoniae B2", "test": "MIC against resistant clinical isolates", "type": "cell-based", "conditions": "COL-R", "description": "as §1, §2"}, "[19]": {"test_system": "Klebsiella pneumoniae BO1", "test": "MIC against resistant clinical isolates", "type": "cell-based", "conditions": "COL-S", "description": "as §1, §2"}, "[20]": {"test_system": "Klebsiella pneumoniae BO4", "test": "MIC against resistant clinical isolates", "type": "cell-based", "conditions": "COL-R", "description": "as §1, §2"}, "[21]": {"test_system": "Klebsiella pneumoniae KP0787", "test": "MIC against resistant clinical isolates", "type": "cell-based", "conditions": "resistance profile PDR", "description": "as §1, §2"}, "[22]": {"test_system": "Pseudomonas aeruginosa 101/1477", "test": "MIC against resistant clinical isolates", "type": "cell-based", "conditions": "resistance profile PEN, ES-CEPH, CARB, AG", "description": "as §1, §2"}, "[23]": {"test_system": "Pseudomonas aeruginosa 14X-34", "test": "MIC against resistant clinical isolates", "type": "cell-based", "conditions": "14X34, resistance profile PDR", "description": "as §1, §2"}, "[24]": {"test_system": "Pseudomonas aeruginosa VR143/97", "test": "MIC against resistant clinical isolates", "type": "cell-based", "conditions": "resistance profile PEN, ES-CEPH, CARB, MON, AG, FQ", "description": "as §1, §2"}, "[25]": {"test_system": "Staphylococcus aureus ATCC 43300 (MRSA)", "test": "MIC against resistant clinical isolates", "type": "cell-based", "conditions": "resistance profile PEN", "description": "as §1, §2"}, "[26]": {"test_system": "Staphylococcus aureus ATCC 700699 (VanA)", "test": "MIC against resistant clinical isolates", "type": "cell-based", "conditions": "ATCC700699, resistance profile GLY", "description": "as §1, §2"}, "[27]": {"test_system": "Staphylococcus haemolyticus SI-6/2011", "test": "MIC against resistant clinical isolates", "type": "cell-based", "conditions": "SI6/2011, resistance profile AG", "description": "as §1, §2"}, "[28]": {"test_system": "Staphylococcus warneri SI-5/2011", "test": "MIC against resistant clinical isolates", "type": "cell-based", "conditions": "SI5/2011, resistance profile PEN, AG", "description": "as §1, §2"}, "[29]": {"test_system": "human liver microsomial enzymes", "test": "Metabolic stability assay", "type": "in vitro ADME", "conditions": "human liver microsomes, 1 h of incubation at 37° C., 50 μM", "description": "The reaction was stopped by cooling in ice and adding 1.0 mL of acetonitrile. The reaction mixtures were then centrifuged, and the parent drug and metabolites were subsequently determined by LC-UV-MS as reported for the solubility assay"}}, "note": "Read-outs that look alike come from different tables or passages of the source."}
{"smiles": "N=C(N)NCCCCCCCCN(CCCCCCCCNC(=N)NCC1CC1)C(=O)N(CCCCCCCCNC(=N)N)CCCCCCCCNC(=N)NCC1CC1", "note": "[Compound 28, 1,3-bis(8-(3-(cyclopropylmethyl)guanidino)octyl)-1,3-bis(8-guanidinooctyl)urea]", "values": [{"measurement": "MIC", "setting": "[1]", "value": 8, "unit": "µg/mL"}, {"measurement": "MIC", "setting": "[2]", "value": 4, "unit": "µg/mL"}, {"measurement": "MIC", "setting": "[3]", "value": 8, "unit": "µg/mL"}, {"measurement": "MIC", "setting": "[4]", "value": 0.5, "unit": "µg/mL"}, {"measurement": "MIC", "setting": "[5]", "value": "< 0.125", "unit": "µg/mL"}, {"measurement": "MIC", "setting": "[6]", "value": 1, "unit": "µg/mL"}, {"measurement": "MIC", "setting": "[7]", "value": 1, "unit": "µg/mL"}, {"measurement": "MIC", "setting": "[8]", "value": 4, "unit": "µg/mL"}, {"measurement": "MIC", "setting": "[9]", "value": 2, "unit": "µg/mL"}, {"measurement": "MIC", "setting": "[10]", "value": 16, "unit": "µg/mL"}, {"measurement": "MIC", "setting": "[11]; Acinetobacter baumannii AC-54/97 (IMP-2), Tables 2 and 3", "value": 2, "unit": "µg/mL"}, {"measurement": "MIC", "setting": "[11]; Table 4, Acinetobacter baumannii AC-54/97, resistance profile PEN, ES-CEPH, CARB, AZT, AG, FQ, FOS, SXT", "value": 4, "unit": "µg/mL"}, {"measurement": "MIC", "setting": "[12]; Enterobacter cloacae VA-417/02 (VIM-4), Tables 2 and 3", "value": 1, "unit": "µg/mL"}, {"measurement": "MIC", "setting": "[12]; Table 4, Enterobacter cloacae VA-417/02, resistance profile PEN, CEPH, CARB, AG, FQ", "value": 2, "unit": "µg/mL"}, {"measurement": "MIC", "setting": "[13]", "value": 4, "unit": "µg/mL"}, {"measurement": "MIC", "setting": "[14]", "value": 4, "unit": "µg/mL"}, {"measurement": "MIC", "setting": "[15]", "value": 8, "unit": "µg/mL"}, {"measurement": "MIC", "setting": "[16]", "value": 2, "unit": "µg/mL"}, {"measurement": "MIC", "setting": "[17]", "value": 4, "unit": "µg/mL"}, {"measurement": "MIC", "setting": "[18]", "value": 4, "unit": "µg/mL"}, {"measurement": "MIC", "setting": "[19]", "value": 4, "unit": "µg/mL"}, {"measurement": "MIC", "setting": "[20]", "value": 8, "unit": "µg/mL"}, {"measurement": "MIC", "setting": "[21]", "value": 1, "unit": "µg/mL"}, {"measurement": "MIC", "setting": "[22]", "value": 8, "unit": "µg/mL"}, {"measurement": "MIC", "setting": "[23]", "value": 8, "unit": "µg/mL"}, {"measurement": "MIC", "setting": "[24]", "value": 8, "unit": "µg/mL"}, {"measurement": "MIC", "setting": "[25]", "value": 4, "unit": "µg/mL"}, {"measurement": "MIC", "setting": "[26]", "value": 4, "unit": "µg/mL"}, {"measurement": "MIC", "setting": "[27]", "value": 2, "unit": "µg/mL"}, {"measurement": "MIC", "setting": "[28]", "value": 2, "unit": "µg/mL"}, {"measurement": "metabolic stability", "setting": "[29]", "value": 99.9, "unit": "%"}]}
